Measurements from patent US6875451B2, “Compositions and methods for the treatment of primary and metastatic neoplastic diseases using arsenic compounds” (PolaRx Biopharmaceuticals Inc., priority 1997, dated 2005).

How the values were obtained:
Format in all cases: cell-based
NCI-H322M = test: SRB growth assay, 6 days exposure, non-small cell lung cancer
Method: (§1) Arsenic trioxide (1 mg/ml, 10 mg/ampoule, manufactured by Taylor Pharmaceuticals, Decatur, Ill.) was tested at five concentrations each at 10-fold dilutions, i.e., 10^−5, 10^−6, 10^−7, 10^−8 and 10^−9 μg/ml.
(§2) The in vitro tests were performed by incubating the test cells in the presence of the indicated concentration of arsenic trioxide under standard culture conditions for a designated period of time, which is followed by a sulforhodamine B (SRB) protein assay to estimate cell viability or growth. The cell lines are organized into subpanels according to the origin of the cell lines, e.g., leukemia, breast cancer, etc. A description of the cell lines and method of testing is described in Monk et al. (1997, Anticancer Drug Des. 12:533-41) and Weinstein et al., (1997, Science 275:343-9), which are incorporated herein in their entirety.
(§3) The measurement of an effect is expressed in Percentage Growth (PG). The measured effect of the compound on a cell line is calculated according to one or the other of the following two expressions: If (Mean ODtest−Mean ODzero)≧0. then PG=100×(Mean ODtest−Mean ODzero)/(Mean ODctrl−Mean ODzero) If (Mean ODtest−Mean ODzero)<0. then PG=100×(Mean ODtest−Mean ODzero)/(Mean ODzero where: • Mean ODzero=the average of optical density measurements of SRB-derived color just before exposure of cells to the test compounds; • Mean ODtest=the average of optical density measurements of SRB-derived color after exposure of cells to the test compound for a designated period of time; and • Mean ODctrl=the average of optical density measurements of SRB-derived color after with no exposure of cells to the test compound for a designated period of time
(§4) The first two columns describe the subpanel (e.g., leukemia) and cell line (e.g., CCRF-CEM) involved. The next two columns list the Mean ODzero and Mean ODctrl; the next five columns list the Mean ODtest for each of five different concentrations. Each concentration is expressed as the log10 (molar or μg/ml). The next five columns list the calculated PGs for each concentration. The response parameters GI50, TGI and LC50 are interpolated values representing the concentrations at which the PG is +50, 0, and −50, respectively. Sometimes these response parameters cannot be obtained by interpolation. If, for instance, all of the PGs in a given row exceed +50, then none of the three parameters can be obtained by interpolation. In such a case, the value given for each response parameter is the highest concentration tested and is preceded by a “>” sign. This practice is extended similarly to the other possible situations where a response parameter cannot be obtained by interpolation.
(§5) In the first set, the cells from 56 different cancer cell lines were exposed to five concentrations of arsenic trioxide continuously for two days prior to performing the SRB assay. In the second set, the cells from 50 different cell lines (a subset of the first 56 cell lines, plus the renal cancer cell line 786-0) were exposed continuously for six days prior to the SRB assay.

EKVX = test: as above
Method: as §1, §2, §3, §4, §5

NCI-H226 = test: as above; details: NCI-H226, 6 days
Method: as §1, §2, §3, §4, §5

HOP-62 = test: as above; details: HOP-62, 6 days
Method: as §1, §2, §3, §4, §5

NCI-H23 = test: as above; details: NCI-H23, 6 days
Method: as §1, §2, §3, §4, §5

786-O = test: SRB growth assay, 6 days exposure, renal cancer; details: 786-0, 6 days
Method: as §1, §2, §3, §4, §5

CAKI-1 = test: SRB growth assay, 6 days exposure, renal cancer; details: CAKI-1, 6 days
Method: as §1, §2, §3, §4, §5

S12C = test: SRB growth assay, 6 days exposure, renal cancer
Method: as §1, §2, §3, §4, §5

[1] = read-out: LC50 (the source's name)

## arsenic trioxide
NCI-H322M; Log 10 Concentration −4.9
  Mean Optical Densities: 0.054
  Percent Growth: 3%
NCI-H322M; Log 10 Concentration −5.9
  Mean Optical Densities: 0.552
  Percent Growth: 77%
NCI-H322M; Log 10 Concentration −6.9
  Mean Optical Densities: 0.674
  Percent Growth: 96%
NCI-H322M; Log 10 Concentration −7.9
  Mean Optical Densities: 0.620
  Percent Growth: 88%
NCI-H322M; Log 10 Concentration −8.9
  Mean Optical Densities: 0.680
  Percent Growth: 97%
NCI-H322M; [1]
  CC50: > 12.6 µM
EKVX
  TGI: 4.22E−06
EKVX; Log 10 Concentration −4.9
  Mean Optical Densities: 0.014
  Percent Growth: −53%
EKVX; Log 10 Concentration −5.9
  Mean Optical Densities: 0.414
  Percent Growth: 59%
EKVX; Log 10 Concentration −6.9
  Mean Optical Densities: 0.628
  Percent Growth: 92%
EKVX; Log 10 Concentration −7.9
  Mean Optical Densities: 0.601
  Percent Growth: 88%
EKVX; Log 10 Concentration −8.9
  Mean Optical Densities: 0.573
  Percent Growth: 83%
NCI-H226; Log 10 Concentration −4.9
  Mean Optical Densities: 0.164
  Percent Growth: 17%
NCI-H226; Log 10 Concentration −5.9
  Mean Optical Densities: 0.348
  Percent Growth: 63%
NCI-H226; Log 10 Concentration −6.9
  Mean Optical Densities: 0.489
  Percent Growth: 98%
NCI-H226; Log 10 Concentration −7.9
  Mean Optical Densities: 0.458
  Percent Growth: 90%
NCI-H226; Log 10 Concentration −8.9
  Mean Optical Densities: 0.504
  Percent Growth: 101%
NCI-H226; [1]
  CC50: > 12.6 µM
HOP-62; Log 10 Concentration −4.9
  Mean Optical Densities: 0.014
  Percent Growth: −77%
HOP-62; Log 10 Concentration −5.9
  Mean Optical Densities: 0.451
  Percent Growth: 40%
HOP-62; Log 10 Concentration −6.9
  Mean Optical Densities: 1.019
  Percent Growth: 99%
HOP-62; Log 10 Concentration −7.9
  Mean Optical Densities: 0.997
  Percent Growth: 97%
HOP-62; Log 10 Concentration −8.9
  Mean Optical Densities: 1.076
  Percent Growth: 105%
NCI-H23; Log 10 Concentration −4.9
  Mean Optical Densities: 0.086
  Percent Growth: 1%
NCI-H23; Log 10 Concentration −5.9
  Mean Optical Densities: 1.303
  Percent Growth: 79%
NCI-H23; Log 10 Concentration −6.9
  Mean Optical Densities: 1.872
  Percent Growth: 116%
NCI-H23; Log 10 Concentration −7.9
  Mean Optical Densities: 1.814
  Percent Growth: 112%
NCI-H23; Log 10 Concentration −8.9
  Mean Optical Densities: 1.818
  Percent Growth: 113%
NCI-H23; [1]
  CC50: > 12.6 µM
786-O
  TGI: 2.77E−06
786-O; Log 10 Concentration −4.9
  Mean Optical Densities: −0.003
  Percent Growth: −100%
786-O; Log 10 Concentration −5.9
  Mean Optical Densities: 0.832
  Percent Growth: 52%
786-O; Log 10 Concentration −6.9
  Mean Optical Densities: 1.786
  Percent Growth: 113%
786-O; Log 10 Concentration −7.9
  Mean Optical Densities: 1.821
  Percent Growth: 116%
786-O; Log 10 Concentration −8.9
  Mean Optical Densities: 1.582
  Percent Growth: 100%
CAKI-1
  TGI: 2.43E−06
CAKI-1; Log 10 Concentration −4.9
  Mean Optical Densities: 0.004
  Percent Growth: −88%
CAKI-1; Log 10 Concentration −5.9
  Mean Optical Densities: 0.491
  Percent Growth: 35%
CAKI-1; Log 10 Concentration −6.9
  Mean Optical Densities: 1.573
  Percent Growth: 117%
CAKI-1; Log 10 Concentration −7.9
  Mean Optical Densities: 1.725
  Percent Growth: 128%
CAKI-1; Log 10 Concentration −8.9
  Mean Optical Densities: 1.254
  Percent Growth: 93%
S12C
  LC50 (concentration killing 50% of cells): > 12.6 µM
  TGI: 5.67E−06
S12C; Log 10 Concentration −4.9
  Mean Optical Densities: 0.013
  Percent Growth: −46%
S12C; Log 10 Concentration −5.9
  Mean Optical Densities: 0.829
  Percent Growth: 86%
S12C; Log 10 Concentration −6.9
  Mean Optical Densities: 1.113
  Percent Growth: 117%
S12C; Log 10 Concentration −7.9
  Mean Optical Densities: 1.141
  Percent Growth: 120%
S12C; Log 10 Concentration −8.9
  Mean Optical Densities: 0.882
  Percent Growth: 92%
